Measurements published in patent US11459586B2, “Methods for increasing efficiency of nuclease-mediated gene editing in stem cells” (President and Fellows of Harvard College, priority 2016, dated 2022).

Assays:
Assay type in all cases: cell-based
human iPSC [1] = assay: mThy1 gene targeting in hiPSC with chemical inhibitors added after nucleofection (flow cytometry); conditions: for mThy1 gene targeting efficiencies: PGP1 hiPSC, administered after plasmid nucleofection, indicated concentrations (FIG. 9D)
Experimental: FIGS. 9A-G. Effects of chemical and genetic inhibitors on mThy1 gene targeting in hiPSC. FIG. 9A. Mouse Thy1 gene targeting scheme. Human iPSC were nucleofected with the mThy1 targeting vector system plasmids and analyzed by flow cytometry five days later. The percentages of mThy1^+hThy1^−, mThy1^+hThy1^+, and mThy1^−hThy1^− cells for each sample (gated on live single cells) are graphed. Lines mark the percentage values for the control sample. FIGS. 9B-9D. Human iPSC were nucleofected with: 2 μg mThy1 targeting vector; 0.5 μg Cas9 plasmid; and 1.5 μg of sgRNA plasmids. The sample was divided into multiple wells and cultured in plain media (mTeSR1+10 μM Y-27632 ROCK inhibitor) supplemented with the indicated chemical inhibitor for three days. 20 μM pifithrin α, 200 μM peptide V5 (VPMLK, SEQ ID NO:31), 200 μM peptide control (IPMIK, SEQ ID NO:32), 50 μM TEMPOL, or the indicated concentrations of SCR7 or L755507 were used. FIG. 9B, mThy1^+hThy1^− (bottom portion of each bar in each graph), mThy1^+hThy1^+ (top portion of each bar in each graph). FIG. 9C, mThy1^+hThy1^− (bottom portion of each bar in each graph), mThy1^+hThy1^+ (top portion of each bar in left and center graphs, middle portion of each bar in right graph), and mThy1^−hThy1^− (top portion of each bar in right graph). FIG. 9D, mThy1^+hThy1^− (bottom portion of each bar in each graph), mThy1^+hThy1^+ (center portion of each bar in each graph), and mThy1^−hThy1^− (top portion of each bar in each graph). FIGS. 9E-9F. Human iPSC were nucleofected with: 2 μg mThy1 targeting vector plasmid; 0.5 μg Cas9 plasmid; 1 μg of sgRNA plasmids; and 0.5 μg of plasmid expressing the indicated DNA repair gene or pUC19 control (“Cas9 only”). For FIG. 9E, cultures were treated with 50 μM zVAD and 10 μM SB203580 post transfection. mThy1^+hThy1^− (bottom portion of each bar in each graph), mThy1^+hThy1^+ (top portion of each bar in left and center graphs, middle portion of each bar in right graph), and mThy1^−hThy1^− (top portion of each bar in right graph). FIG. 9F, mThy1^+hThy1^− (bottom portion of each bar in each graph), mThy1^+hThy1^+ (top portion of each bar in left and center graphs, middle portion of each bar in right graph), and mThy1^−hThy1^− (top portion of each bar in right graph). FIG. 9G. Human iPSC were nucleofected with: 2 μg mThy1 targeting vector plasmid; 0.5 μg Cas9 plasmid; and 1.5 μg of sgRNA plasmids. The indicated viral inhibitor genes were cloned into the Cas9 expression vector following an IRES sequence. Cultures were supplemented with 50 μM zVAD post transfection. mThy1^+hThy1^− (bottom portion of each bar in each graph), mThy1^+hThy1^+ (top portion of each bar in left and center graphs, middle portion of each bar in right graph), and mThy1^−hThy1^− (top portion of each bar in right graph).
FIGS. 10A-F. Effect of Caspase and p38 MAPK inhibitors on survival and gene targeting of human iPSC. FIG. 10A and FIG. 10B. Mouse Thy1 gene targeting scheme. Human iPSC were nucleofected with the mThy1 targeting vector, Cas9 nuclease, and Thy1 sgRNA expressing plasmid or pUC19 empty vector. Nucleofected cells were evenly divided and plated onto plain media (mTeSR1+10 μM Y-27632 ROCK inhibitor), or media supplemented with the indicated chemical inhibitor. For specific caspase inhibitors, the principal caspase they target is noted in parentheses. As observed in previous reports, most of the nuclease-mediated cell death occurred between days 1-2 post transfection, and the proportions of mThy1^+ cells remained stable beyond day 5. FIG. 10C. Two days after nucleofection, viable cells were counted. Error bars indicate s.e.m. of technical duplicates. Lines mark the count levels for nucleofected cells in plain media with or without sgRNA. FIG. 10D. Five days after transfection, cells were analyzed by flow cytometry for mThy1 and hThy1 expression. The percent of mThy1^+hThy1^− (bottom of each bar) and mThy1^+hThy1^+ (top of each bar) cells of live single cells is indicated. […]

human iPSC [2] = conditions: 10 μM SB203580 added to hiPSC media after nucleofection
Experimental: FIGS. 10A-F. Effect of Caspase and p38 MAPK inhibitors on survival and gene targeting of human iPSC. FIG. 10A and FIG. 10B. Mouse Thy1 gene targeting scheme. Human iPSC were nucleofected with the mThy1 targeting vector, Cas9 nuclease, and Thy1 sgRNA expressing plasmid or pUC19 empty vector. Nucleofected cells were evenly divided and plated onto plain media (mTeSR1+10 μM Y-27632 ROCK inhibitor), or media supplemented with the indicated chemical inhibitor. For specific caspase inhibitors, the principal caspase they target is noted in parentheses. […] FIG. 10C. Two days after nucleofection, viable cells were counted. Error bars indicate s.e.m. of technical duplicates. Lines mark the count levels for nucleofected cells in plain media with or without sgRNA. FIG. 10D. Five days after transfection, cells were analyzed by flow cytometry for mThy1 and hThy1 expression. The percent of mThy1^+hThy1^− (bottom of each bar) and mThy1^+hThy1^+ (top of each bar) cells of live single cells is indicated. Lines mark the levels for cells in plain media. […] FIG. 10E. FACS plots of human iPSC transfected with the mThy1 targeting vector, Cas9 nuclease, and Thy1 Left and Right sgRNAs. Cells were subsequently cultured for 5 days in plain media±50 μM zVAD and ±10 μM SB203580. FIG. 10F. Human iPSC cultures were single cell FACS sorted into 96-well tissue culture plates containing a MEF feeder layer and hES media supplemented with SMC4 inhibitors±50 μM zVAD for eight days. Ten days after sorting, the number of surviving iPSC colonies was counted (from 190 cells sorted). PGP1 hiPSC lines created using retroviral vectors or non-integrating methods were both tested.
Pluripotency of iPSC cultures was verified by flow cytometry staining using anti-human Tra-1/60 PE (TRA-1-60, BD) and anti-human Oct3/4 eFluor 660 (EM92, eBioscience) with the fixation buffer sold under the trademark BD CYTOFIX™ and permeabilization buffer sold under the trademark PHOSFLOW™ Perm/Wash buffers. Human g-band karyotype analysis was done by Cell Line Genetics. Viable cell counts were measured with the cell analyzer sold under the trademark MUSE® Count & Viability Assay kit (EMD Millipore). Anti-human HLA-A2 APC (BB7.2) and anti-human HLA-BC PE (B1.23.2) were purchased from eBioscience. Human iPSC cultures were treated with 50 ng/ml recombinant interferon gamma (eBioscience) for 2 days prior to HLA staining.
Plasmids were purified using the plasmid DNA purification kit sold under the trademark Qiagen ENDOFREE® Plasmid Maxi kit and nucleofected into iPSC cells using the Lonza 4D-Nucleofector X unit (Buffer P3, Program CB-150). For each 20 μl nucleofection reaction, 0.2-0.5×106 iPSC were transfected with up to 4 μg of plasmid DNA. Post-nucleofection, iPSC were plated onto solubilized basement membrane matrix secreted by Engelbreth-Holm-Swarm (EHS) mouse sarcoma cells sold under the trademark […]®-coated wells containing feeder-free cell culture medium sold under the trademark MTESR1™ media with 10 μM Y-27632 plus other chemical inhibitors when noted. Later experiments included 50 μM zVAD-fmk (Bachem) for 1 day and 10 μM SB203580 (Biovision) for 4-5 days post transfection (see FIGS. 5, 6, 11, and 12). For FIG. 6 (ssODN transfection), 200 ng/ml recombinant B 18R (eBioscience), was also added to the culture for 5 days post transfection.
The following inhibitors were added to the hiPSC culture at the concentrations and time periods indicated in the Examples below. • 1. p53 or Bax inhibitors: cyclic pifithrin α (StemCell Technologies); pifithrin (Tocris); peptide V5, peptide control, iMAC1 and iMAC2 (EMD Millipore); N-acetyl cysteine and 4-hydroxy TEMPO (TEMPOL) (Sigma). • 2.

human iPSC [3] = assay: gene targeting (mThy1, mCD147) in hiPSC transiently transfected with Cas9-IRES-anti-apoptotic gene plasmids; conditions: Cas9 Bcl-2 sgRNA plasmids, transient transfection
Experimental: FIGS. 4A-D. Bcl-2 overexpression increases HR-mediated gene targeting in human iPSC when transiently transfected with the Cas9 nuclease. FIG. 4A. Mouse Thy1 gene targeting scheme. FIG. 4B. Plasmids were constructed to constitutively express Cas9 together with an anti-apoptotic gene (separated by an IRES) under the constitutively active EF1α promoter. Plain human iPSC were nucleofected with 0.5 μg of one of these Cas9 plasmids together with 2 μg of the mThy1 targeting vector and 1.5 μg of plasmids expressing the Thy1 Left, Right, both, or no sgRNAs (pUC19). Five days later, cells were analyzed by flow cytometry. FIG. 4C. Flow cytometry staining for mThy1 and hThy1 for the Cas9 only sample gated on live single cells; the percent of cells in each quadrant is indicated. […] FIG. 4D. Compiled gene editing frequencies. The percent of mThy1^+hThy1^− (bottom portion of each bar in the left, center, and right grafts), mThy1^+hThy1^+ (top portion of bars in the left and center graphs), and mThy1^−hThy1^− (top portion of bars in the right graph) cells is graphed for each indicated sample. Lines mark the percentages for the Cas9 only sample. Results are representative of two independent experiments.
FIGS. 8A-F. Wild type Bcl-2 improves gene targeting at various genomic loci across multiple hiPSC lines. FIG. 8A. Plasmids were constructed to constitutively express the Cas9 nuclease with a form of Bcl-2 (separated by an IRES), and a sgRNA. Three human iPSC lines were nucleofected with 2 μg of mThy1 or mCD147 targeting vector and 2 μg of “Cas9 sgRNA” or “Cas9 Bcl-2 sgRNA” expression plasmid. 5-9 days later, cells were analyzed by flow cytometry. FIG. 8B. Mouse Thy1 gene targeting scheme. FIG. 8C. Single amino acid mutations were generated for the Bcl-2 BH1 (G145A) or BH4 (Y28A) domains. Compiled gene editing frequencies for cells transfected with the Left, Right, or Both Thy1 sgRNAs. The percent of mThy1^+hThy1^− (bottom portion of each set of bars in each graph), mThy1^+hThy1^+ (top portion of left and center sets of bars in each graph and center portion of right set of bars in each graph), and mThy1^−hThy1^− (top portion of right set of bars in each graph) cells among the various samples is indicated. FIG. 8D. Mouse CD147 gene targeting scheme. FIG. 8E. Flow cytometry staining for mCD147 and hCD147 for retrovirally-derived PGP1 hiPSC transfected with “Cas9 sgRNA” or “Cas9 Bcl-2 sgRNA”. Samples are gated on live single cells; the percent of cells in each quadrant is indicated. FIG. 8F. Compiled gene editing frequencies for cells transfected with the Left, Right, or both CD147 sgRNAs. The percent of mCD147^+hCD147^− (bottom portion of each set of bars in each graph), mCD147^+hCD147^+ (top portion of left and center sets of bars in each graph and center portion of right set of bars in each graph), and mCD147^−hCD147^− (top portion of right set of bars in each graph) cells among the three hiPSC lines is indicated.
PCR reactions were done using polymerase sold under the trademark KAPA HIFI™ HotStart polymerase; primers and double-stranded DNA fragments sold under the trademark GBLOCKS® are from IDT. Plasmids were constructed using isothermal assembly, transformed into Stbl3 competent E. coli (Invitrogen), grown at 30° C., and verified by Sanger sequencing (Genewiz). Anti-apoptotic genes were obtained from previously published plasmids: Bcl-2 (Addgene plasmid #8793) and Bcl-xL (#8790) (Cheng et al., 2001); Bcl2A1 (#36973) (Pratt et al., 2012); and Mcl-1 (#21605) (Maurer et al., 2006). The dominant negative p53 sequence from Addgene plasmid #9058 (Hahn et al., 2002) was synthesized as a gBlock. These genes were cloned into the EF1α promoter-Cas9 nuclease plasmid after an IRES.
The U6 promoter-sgRNA (for each sgRNA sequence) was cloned into the EF1α promoter-Cas9 nuclease or EF1α promoter-Cas9 nuclease-IRES-Bcl-2 expression plasmids to form the “Cas9 only sgRNA” or “Cas9 Bcl-2 sgRNA” plasmids used in Examples 6 and 7. […]

## CCCCCCNC(=O)Nc1ccc(S(=O)(=O)Nc2ccc(CCNC[C@H](O)COc3ccc(O)cc3)cc2)cc1 [L755507]
Human iPSC [1]
  mThy1 gene targeting efficiencies: neither the DNA ligase IV inhibitor SCR7 (Maruyama et al., 2015) nor the β3-adrenergic receptor agonist L755507 (Yu et al., 2015) improved mThy1 gene targeting efficiencies

## Cc1ccc(C(=O)Cn2c3c(sc2=N)CCCC3)cc1 [Pifithrin α]
Human iPSC [1]; 20 μM pifithrin α in media for three days after nucleofection
  mThy1 gene targeting in hiPSC: did not enhance hiPSC gene targeting

## C[S+]([O-])c1ccc(-c2nc(-c3ccncc3)c(-c3ccc(F)cc3)[nH]2)cc1 (stereo not drawn) [SB203580]
Human iPSC [1]; 10 μM SB203580 added to hiPSC media after nucleofection
  gene targeting efficiency: did enhance gene targeting efficiency
Human iPSC [2]
  cell survival: did not affect cell survival

## O=c1[nH]c(=S)[nH]c(N=Cc2ccccc2)c1N=Cc1ccccc1 [SCR7]
Human iPSC [1]
  mThy1 gene targeting efficiencies: neither the DNA ligase IV inhibitor SCR7 (Maruyama et al., 2015) nor the β3-adrenergic receptor agonist L755507 (Yu et al., 2015) improved mThy1 gene targeting efficiencies

## CC1(C)CC(O)CC(C)(C)N1[O] [TEMPOL, 4-hydroxy TEMPO]
Human iPSC [1]; 50 μM TEMPOL in media for three days after nucleofection
  mThy1 gene targeting in hiPSC: no effect

## G145A: Bcl-2 with G145A mutation in the BH1 domain, prevents interaction with Bax
Human iPSC [3]
  mThy1 gene targeting, wild type vs mutant Bcl-2: intermediate levels of gene targeting

## VPMLK (peptide V5)
Human iPSC [1]; 200 μM peptide V5 in media for three days after nucleofection
  mThy1 gene targeting in hiPSC: only a very slight improvement in gene targeting

## Y28A: Bcl-2 with Y28A mutation in the BH4 domain
Human iPSC [3]
  mThy1 gene targeting, wild type vs mutant Bcl-2: intermediate levels of gene targeting
